# Data published in patent US10934310B2, “Inhibitors of Bruton's tyrosine kinase and method of their use” (JANSSEN PHARMACEUTICA NV, priority 2015, dated 2021).
# Biological target: unphosphorylated-BTK kinase domain (UP-BTK), GST-tagged human BTK (389-659aa) (Homo sapiens (Human), UniProt Q06187)
# Assay: BTK Kinase Lanthascreen Binding Assay
# Conditions: compound, 50 nM Tracer 236, 2 nM anti-GST antibody, 60 minutes; pIC50 = negative log of the IC50 in molar
# Description: BTK Kinase Lanthascreen Binding Assay:
# A BTK kinase lanthascreen binding assay monitors compound binding to unphosphorylated-BTK kinase domain (UP-BTK), by competing with a fluorescent labeled tracer. […] Data were analyzed using Xlfit™ version 5.3 from ID Business Solutions (Guildford), Microsoft Excel add-in. pIC50 refers to the negative log of the IC50 in molar.
# unphosphorylated-BTK kinase domain (UP-BTK), GST-tagged human BTK (389-659aa), sequence (Q06187 389-659): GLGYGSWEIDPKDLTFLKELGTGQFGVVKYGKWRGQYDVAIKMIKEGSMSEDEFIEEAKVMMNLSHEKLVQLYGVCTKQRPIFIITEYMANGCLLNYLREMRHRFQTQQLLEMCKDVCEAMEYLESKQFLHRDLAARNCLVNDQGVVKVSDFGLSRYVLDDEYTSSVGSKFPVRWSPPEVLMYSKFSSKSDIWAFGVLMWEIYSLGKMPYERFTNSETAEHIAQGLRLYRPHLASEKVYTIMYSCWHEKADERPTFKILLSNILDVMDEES
row,BTK_I_binding pIC50,SMILES
1,6.59,"Cc1cc(Oc2ccccc2)ccc1N1C(=O)Nc2c(C(=O)N[C@@H]3CCC[C@H](N(C)C)C3)sc3nccc1c23 [Example 24, N-((1R,3S)-3-(Dimethylamino)cyclohexyl)-5-(2-methyl-4-phenoxyphenyl)-4-oxo-4,5-dihydro-3H-1-thia-3,5,8-triazaacenaphthylene-2-carboxamide]"
2,6.67,"Cc1cc(Oc2ccccc2)ccc1N1C(=O)Nc2c(C(=O)NC3CCCC3)sc3nccc1c23 [Example 28, N-Cyclopentyl-5-(2-methyl-4-phenoxyphenyl)-4-oxo-4,5-dihydro-3H-1-thia-3,5,8-triazaacenaphthylene-2-carboxamide]"
3,6.81,"Cc1cc(Oc2ccccc2)ccc1N1C(=O)Nc2c(C(=O)N[C@@H]3CCC[C@H]3N(C)C)sc3nccc1c23 [Example 29, N-((1R,2R)-2-(Dimethylamino)cyclopentyl)-5-(2-methyl-4-phenoxyphenyl)-4-oxo-4,5-dihydro-3H-1-thia-3,5,8-triazaacenaphthylene-2-carboxamide]"
4,6.66,"CNC1CCCCC1NC(=O)c1sc2nccc3c2c1NC(=O)N3c1ccc(Oc2ccccc2)cc1C (stereo not drawn) [Example 31, 5-(2-Methyl-4-phenoxyphenyl)-N-(2-(methylamino)cyclohexyl)-4-oxo-4,5-dihydro-3H-1-thia-3,5,8-triazaacenaphthylene-2-carboxamide]"
5,7.12,"Cc1cc(Oc2ccccc2)ccc1N1C(=O)Nc2c(C(=O)N[C@H]3CCC[C@@H]3N(C)C)sc3nccc1c23 [Example 32, N-((1S,2S)-2-(Dimethylamino)cyclopentyl)-5-(2-methyl-4-phenoxyphenyl)-4-oxo-4,5-dihydro-3H-1-thia-3,5,8-triazaacenaphthylene-2-carboxamide]"
6,6.68,"Cc1cc(Oc2ccccc2)ccc1N1C(=O)Nc2c(C(=O)N[C@@H]3CCCC[C@H]3N)sc3nccc1c23 [Example 38, N-((1R,2R)-2-Aminocyclohexyl)-5-(2-methyl-4-phenoxyphenyl)-4-oxo-4,5-dihydro-3H-1-thia-3,5,8-triazaacenaphthylene-2-carboxamide]"
7,6.23,"Cc1cc(Oc2ccccc2)ccc1N1C(=O)Nc2c(C(=O)N[C@@H]3CCCC[C@H]3N(C)C)sc3nccc1c23 [Example 43, N-((1R,2R)-2-(Dimethylamino)cyclohexyl)-5-(2-methyl-4-phenoxyphenyl)-4-oxo-4,5-dihydro-3H-1-thia-3,5,8-triazaacenaphthylene-2-carboxamide]"
8,6.12,"CC(=O)N[C@@H]1CCCC[C@H]1NC(=O)c1sc2nccc3c2c1NC(=O)N3c1ccc(Oc2ccccc2)cc1C [Example 47, N-((1R,2R)-2-Acetamidocyclohexyl)-5-(2-methyl-4-phenoxyphenyl)-4-oxo-4,5-dihydro-3H-1-thia-3,5,8-triazaacenaphthylene-2-carboxamide]"
9,6.12,"Cc1cc(Oc2ccccc2)ccc1N1C(=O)Nc2c(C(=O)N[C@H]3CCCC[C@H]3N(C)C)sc3nccc1c23 [Example 48, N-((1S,2R)-2-(Dimethylamino)cyclohexyl)-5-(2-methyl-4-phenoxyphenyl)-4-oxo-4,5-dihydro-3H-1-thia-3,5,8-triazaacenaphthylene-2-carboxamide]"
10,6.12,"Cc1cc(Oc2ccccc2)ccc1N1C(=O)Nc2c(C(=O)N[C@H]3CCCC[C@H]3N)sc3nccc1c23 [Example 49, N-((1S,2R)-2-Aminocyclohexyl)-5-(2-methyl-4-phenoxyphenyl)-4-oxo-4,5-dihydro-3H-1-thia-3,5,8-triazaacenaphthylene-2-carboxamide]"
11,6.07,"CN[C@@H]1CCCC[C@@H]1NC(=O)c1sc2nccc3c2c1NC(=O)N3c1ccc(Oc2ccccc2)cc1C [Example 50, 5-(2-Methyl-4-phenoxyphenyl)-N-((1S,2R)-2-(methylamino)cyclohexyl)-4-oxo-4,5-dihydro-3H-1-thia-3,5,8-triazaacenaphthylene-2-carboxamide]"

# More lines, now with the values behind:
row,SMILES,BTK_I_binding pIC50
1,"Cc1cc(Oc2ccccc2)ccc1N1C(=O)Nc2c(C(=O)N[C@@H]3CCC[C@H]3N)sc3nccc1c23 [Example 22, N-((1R,2R)-2-Aminocyclopentyl)-5-(2-methyl-4-phenoxyphenyl)-4-oxo-4,5-dihydro-3H-1-thia-3,5,8-triazaacenaphthylene-2-carboxamide]",7.13
2,"Cc1cc(Oc2ccccc2)ccc1N1C(=O)Nc2c(C(=O)N[C@H]3CC[C@@H](NC#N)CC3)sc3nccc1c23 [Example 23, N-((1S,4S)-4-Cyanamidocyclohexyl)-5-(2-methyl-4-phenoxyphenyl)-4-oxo-4,5-dihydro-3H-1-thia-3,5,8-triazaacenaphthylene-2-carboxamide]",6.77
3,"Cc1cc(Oc2ccccc2)ccc1N1C(=O)Nc2c(C(=O)N[C@H]3CC[C@@H](N)CC3)sc3nccc1c23 [Example 25, N-((1S,4S)-4-Aminocyclohexyl)-5-(2-methyl-4-phenoxyphenyl)-4-oxo-4,5-dihydro-3H-1-thia-3,5,8-triazaacenaphthylene-2-carboxamide]",6.66
4,"CCC(=O)N[C@@H]1CCC[C@H]1NC(=O)c1sc2nccc3c2c1NC(=O)N3c1ccc(Oc2ccccc2)cc1C [Example 26, 5-(2-Methyl-4-phenoxyphenyl)-4-oxo-N-((1R,2R)-2-propionamidocyclopentyl)-4,5-dihydro-3H-1-thia-3,5,8-triazaacenaphthylene-2-carboxamide]",6.69
5,"Cc1cc(Oc2ccccc2)ccc1N1C(=O)Nc2c(C(=O)N[C@@]34C[C@@H]5C[C@@H](C[C@@](O)(C5)C3)C4)sc3nccc1c23 [Example 30, N-((1r,3s,5R,7S)-3-Hydroxyadamantan-1-yl)-5-(2-methyl-4-phenoxyphenyl)-4-oxo-4,5-dihydro-3H-1-thia-3,5,8-triazaacenaphthylene-2-carboxamide]",6.36
6,"CC(=O)N[C@H]1CCCC[C@H]1NC(=O)c1sc2nccc3c2c1NC(=O)N3c1ccc(Oc2ccccc2)cc1C [Example 33, N-((1R,2S)-2-Acetamidocyclohexyl)-5-(2-methyl-4-phenoxyphenyl)-4-oxo-4,5-dihydro-3H-1-thia-3,5,8-triazaacenaphthylene-2-carboxamide]",6.98
7,"CCC(=O)N[C@H]1CCC[C@H]1NC(=O)c1sc2nccc3c2c1NC(=O)N3c1ccc(Oc2ccccc2)cc1C [Example 34, 5-(2-Methyl-4-phenoxyphenyl)-4-oxo-N-((1R,2S)-2-propionamidocyclopentyl)-4,5-dihydro-3H-1-thia-3,5,8-triazaacenaphthylene-2-carboxamide]",6.91
8,"CCC(=O)N[C@H]1CCCC[C@H]1NC(=O)c1sc2nccc3c2c1NC(=O)N3c1ccc(Oc2ccccc2)cc1C [Example 35, 5-(2-Methyl-4-phenoxyphenyl)-4-oxo-N-((1R,2S)-2-propionamidocyclohexyl)-4,5-dihydro-3H-1-thia-3,5,8-triazaacenaphthylene-2-carboxamide]",6.87
9,"CC(=O)N[C@H]1CCC[C@H]1NC(=O)c1sc2nccc3c2c1NC(=O)N3c1ccc(Oc2ccccc2)cc1C [Example 37, N-((1R,2S)-2-Acetamidocyclopentyl)-5-(2-methyl-4-phenoxyphenyl)-4-oxo-4,5-dihydro-3H-1-thia-3,5,8-triazaacenaphthylene-2-carboxamide]",6.68
10,"Cc1cc(Oc2ccccc2)ccc1N1C(=O)Nc2c(C(=O)N[C@H]3CCC[C@H]3O)sc3nccc1c23 [Example 39, N-((1S,2R)-2-Hydroxycyclopentyl)-5-(2-methyl-4-phenoxyphenyl)-4-oxo-4,5-dihydro-3H-1-thia-3,5,8-triazaacenaphthylene-2-carboxamide]",6.51
11,"CC(=O)N[C@H]1CCC[C@@H]1NC(=O)c1sc2nccc3c2c1NC(=O)N3c1ccc(Oc2ccccc2)cc1C [Example 40, N-((1S,2S)-2-Acetamidocyclopentyl)-5-(2-methyl-4-phenoxyphenyl)-4-oxo-4,5-dihydro-3H-1-thia-3,5,8-triazaacenaphthylene-2-carboxamide]",6.40
12,"Cc1cc(Oc2ccccc2)ccc1N1C(=O)Nc2c(C(=O)N[C@H]3CCC[C@@H]3N)sc3nccc1c23 [Example 41, N-((1S,2S)-2-Aminocyclopentyl)-5-(2-methyl-4-phenoxyphenyl)-4-oxo-4,5-dihydro-3H-1-thia-3,5,8-triazaacenaphthylene-2-carboxamide]",6.37
13,"CCC(=O)N[C@@H]1CCCC[C@@H]1NC(=O)c1sc2nccc3c2c1NC(=O)N3c1ccc(Oc2ccccc2)cc1C [Example 42, 5-(2-Methyl-4-phenoxyphenyl)-4-oxo-N-((1S,2R)-2-propionamidocyclohexyl)-4,5-dihydro-3H-1-thia-3,5,8-triazaacenaphthylene-2-carboxamide]",6.24
14,"CC(=O)N[C@@H]1CCCC[C@@H]1NC(=O)c1sc2nccc3c2c1NC(=O)N3c1ccc(Oc2ccccc2)cc1C [Example 44, N-((1S,2R)-2-Acetamidocyclohexyl)-5-(2-methyl-4-phenoxyphenyl)-4-oxo-4,5-dihydro-3H-1-thia-3,5,8-triazaacenaphthylene-2-carboxamide]",6.17
15,"CCC(=O)N[C@H]1CCC[C@@H]1NC(=O)c1sc2nccc3c2c1NC(=O)N3c1ccc(Oc2ccccc2)cc1C [Example 45, 5-(2-Methyl-4-phenoxyphenyl)-4-oxo-N-((1S,2S)-2-propionamidocyclopentyl)-4,5-dihydro-3H-1-thia-3,5,8-triazaacenaphthylene-2-carboxamide]",6.14
16,"CN[C@H]1CCC[C@@H]1NC(=O)c1sc2nccc3c2c1NC(=O)N3c1ccc(Oc2ccccc2)cc1C [Example 46, 5-(2-Methyl-4-phenoxyphenyl)-N-((1S,2S)-2-(methylamino)cyclopentyl)-4-oxo-4,5-dihydro-3H-1-thia-3,5,8-triazaacenaphthylene-2-carboxamide]",6.14
